Test results from US8906865B2, “Treatment of inflammation and/or endotoxic shock” (ISIS Innovation Limited, priority 2007, dated 2014).

Test system: C57B16/J mice, zymosan-induced peritonitis
Assay: Zymosan-induced peritonitis in mice
Assay type: in vivo, mouse
Set-up: Reduction of MCP-1 in peritoneal lavage fluid (FIG. 7F) / Reduction of KC in peritoneal lavage fluid (FIG. 7F) / Reduction of TNFα in peritoneal lavage fluid (FIG. 7F) / Reduction of IL-1β in peritoneal lavage fluid (FIG. 7F) / Reduction of IL-6 in peritoneal lavage fluid (FIG. 7F): concentration or dose not given beside the values
Conditions: for Protection in vivo as judged by monocyte and neutrophil levels (FIG. 7C-D): same dose and time as C15
Protocol: FIGS. 7A and 7B—C57B16/J mice were dosed i.p with PBS or chemerin15 (0.32 ng/kg) followed by injection with PBS or zymosan (10 μg, ˜2×10^6 particles per cavity) 1 h later. Peritoneal exudate cells were harvested by peritoneal lavage at multiple time points (FIGS. 7A and 7B; 5-6 mice/treatment) or after 4 h (FIGS. 7C-7E; 6-15 mice/group). FIGS. 7C-7E—total cell numbers in lavage fluid were quantified and cellular composition (neutrophils vs mononuclear phagocytes) determined using FACS analysis. Cells were blocked with 2.4G2 anti-FcγRII/III and stained with Ly-6G-PE and 7/4-FITC. Gates were constructed around two populations, the neutrophils (N; 7/4high, Ly-6Ghigh) and inflammatory monocytes (Mo; 7/4high, Ly-6Glow). FIG. 7E—representative FACS plots are shown for each treatment group at 4 h post-zymosan. FIG. 7F—peritoneal lavage fluid was assayed for TNFα and KC by ELISA and IL-6, IL-1β and MCP-1 by Luminex assay. C15; Chemerin15, Z; Zymosan. ***, P<0.001; **, P<0.01 ** relative to zymosan-treated animals (Student's t test). FIG. 7G—Mice (6-8/treatment) were dosed i.p with zymosan (10 μg) and with C15 (8 pg) or PBS either 1 h beforehand (C15 pre-treatment) or 2 h later (C15 post-treatment). Peritoneal lavage was carried out 4 h post-zymosan challenge. Reference in this figure to the peptide C15 refers to the peptide described previously as C15m;
More specifically, male C57B16/J mice (8-12 weeks) were injected intra-peritoneally with 0.5 ml PBS or 0.5 ml Chemerin15-mouse (0.32 ng/kg) followed by injection with 0.5 ml PBS or Zymosan (2×10^6 particles per cavity) an hour later. After 4 hours animals were sacrificed and peritoneal cavities washed with 5 ml PBS-3 mM EDTA. Total cell counts were obtained using Trypan blue exclusion test. For determination of cellular composition (Neutrophils vs mononuclear phagocytes), cells were blocked with 2.4G2 mAB for 5 mins and stained with PE-conjugated anti-mouse Ly-6G and FITC-conjugated anti-mouse 7/4 mAB for 10 mins. Cells were fixed in 1% formaldehyde prior to FACS analysis with CellQuest software. Gates were constructed around two populations, the neutrophils (N; 7/4^high, Ly-6G^high) and inflammatory monocytes (Mo; 7/4^high). C15 refers to Chemerin15-mouse. Z refers to Zymosan. p<0.01 **; p<0.05 * relative to Zymosan-treated.
Neutrophil (7/4^high, Ly-6G^high), monocyte (7/4^high, Ly-6G^low) and resident macrophage populations (7/4^low, Ly-6G^low) were determined according to Gordon S and Taylor P R Nat Rev Immunol. 2005; 5(12):953; Taylor P R et al. Eur J Immunol. August 2003; 33(8):2090-2097; and Taylor P R et al. Eur J Immunol. July 2005; 35(7):2163-2174.
The above result was further investigated. To determine the anti-inflammatory properties of the C15 peptide in vivo a time-course experiment was performed extending over 48 h. Neutrophil (7/4high, Ly-6Ghigh) and monocyte (7/4high, Ly-6Glow) populations in peritoneal lavage fluid were determined by FACS analysis according to published protocols (Taylor, P. R. et al., (2005). Eur J Immunol 35:2163-2174; Taylor, P. R., (2003). Eur J Immunol 33:2090-2097). Administration of zymosan into the mouse peritoneal cavity produced a time-dependent extravasation of inflammatory cells into the peritoneal cavity, which followed the typical profile of an acute inflammatory response (FIG. 7A-B, solid line). Neutrophils were the first leukocytes to infiltrate the cavity, detectable at 2 h post-zymosan with peak neutrophilia occurring at 4 h (1.95×10^6 cells). Monocyte influx into the inflamed peritoneal cavity was first detectable after 4 h (0.69×10^6 cells), peaking at 24 h post-zymosan injection (1.25×10^6 cells) and declining thereafter. Pre-treatment with C15 at a dose of 8 pg/mouse (≈0.32 ng/kg) 1 h prior to zymosan challenge brought the peak neutrophilia forward to 2 h with approximately 50% the magnitude of that of zymosan challenged mice (reduced from 1.25×10^6 to 0.62×10^6 cells; FIG. 7A, dotted line). […]

[1] = 8 pg/mouse 1 h before zymosan, 4 h post-zymosan
[2] = 0.32 ng/kg (8 pg/mouse) i.p. 1 h before zymosan, 4 h
[3] = C15 2 h post-zymosan, lavage 4 h post-zymosan

Question: For “AGEDPHGYALPGQAA (Mutant C15) [C15-M, control peptide, mutant C15 (F148A & F153A), reference compound]”, which “Protection in vivo as judged by monocyte and neutrophil levels (FIG. 7C-D)” value is on record?
Answer: not be protective

Question: Which “Suppression of neutrophil infiltration (FIG. 7A)” value (from here on “Suppression … (FIG. 7A)”) (8 pg/mouse 1 h before zymosan, 2 h post-zymosan) does the source give for “AGEDPHGYFLPGQFA (listed as Mus sp.) [C15]” here?
Answer: 50%

Question: And the “Suppression … (FIG. 7A)” value [1]?
Answer: 66%

Question: What about the “Suppression of peritoneal monocytes (FIG. 7B)” value (from here on “Suppression … (FIG. 7B)”) [1] of the same sequence?
Answer: 63%

Question: And the “Suppression … (FIG. 7B)” value (8 pg/mouse 1 h before zymosan, 8 h post-zymosan)?
Answer: 61%

Question: What about the “Suppression … (FIG. 7A)” value (8 pg/mouse 1 h before zymosan, 24 h post-zymosan) of the same sequence?
Answer: 50%

Question: What about the “Suppression … (FIG. 7B)” value (8 pg/mouse 1 h before zymosan, 48 h post-zymosan) of the same sequence?
Answer: 64%

Question: What about the “Peritoneal neutrophils at 2 h (peak neutrophilia under C15)” value (8 pg/mouse 1 h before zymosan, zymosan alone 1.25×10^6) of the same sequence?
Answer: 0.62×10^6 cells

Question: What about the “Time of peak neutrophilia” value (8 pg/mouse 1 h before zymosan, zymosan alone 4 h) of the same sequence?
Answer: 2 h

Question: And the “Reduction of Zymosan-elicited monocyte recruitment (FIG. 6)” value [2]?
Answer: 42%

Question: What about the “Reduction of Zymosan-elicited neutrophil recruitment (FIG. 6)” value [2] of the same sequence?
Answer: 52%

Question: And the “Levels of TNFα in zymosan-treated mice (FIG. 6)” value (0.32 ng/kg i.p. 1 h before zymosan)?
Answer: reduced

Question: And the “Rate of monocyte influx into the inflamed cavity” value (2-4 h post-zymosan, zymosan alone 0.51×10^6/h)?
Answer: 180000 h⁻¹

Question: What about the “Reduction of IL-1β in peritoneal lavage fluid (FIG. 7F)” value (4 h post-zymosan) of the same sequence?
Answer: 67%

Question: And the “Reduction of IL-6 in peritoneal lavage fluid (FIG. 7F)” value (4 h post-zymosan)?
Answer: 67%

Question: And the “Reduction of KC in peritoneal lavage fluid (FIG. 7F)” value (4 h post-zymosan)?
Answer: 38%

Question: And the “Reduction of MCP-1 in peritoneal lavage fluid (FIG. 7F)” value (4 h post-zymosan)?
Answer: 59%

Question: And the “Reduction of TNFα in peritoneal lavage fluid (FIG. 7F)” value (4 h post-zymosan)?
Answer: 51%

Question: And the “Decrease in monocyte levels (FIG. 7D)” value (C15 1 h prior to zymosan, 4 h)?
Answer: 62%

Question: What about the “Decrease in neutrophil numbers (FIG. 7C)” value (C15 1 h prior to zymosan, 4 h) of the same sequence?
Answer: 63%

Question: What about the “Monocyte levels (FIG. 7D)” value (C15 1 h prior to zymosan, 4 h, zymosan alone 0.69×10^6) of the same sequence?
Answer: 0.30×10^6

Question: What about the “Neutrophil numbers (FIG. 7C)” value (C15 1 h prior to zymosan, 4 h, zymosan alone 1.9×10^6) of the same sequence?
Answer: 0.78×10^6

Question: What about the “Decrease in monocyte recruitment, C15 post-treatment (FIG. 7G)” value [3] of the same sequence?
Answer: 42%

Question: What about the “Decrease in neutrophil recruitment, C15 post-treatment (FIG. 7G)” value [3] of the same sequence?
Answer: 60%

Question: What about the “Monocyte number, C15 post-treatment (FIG. 7G)” value (C15 2 h post-zymosan, lavage 4 h post-zymosan, zymosan alone 0.69×10^6) of the same sequence?
Answer: 0.42×10^6 cells

Question: And the “Neutrophil number, C15 post-treatment (FIG. 7G)” value (C15 2 h post-zymosan, lavage 4 h post-zymosan, zymosan alone 1.9×10^6)?
Answer: 0.83×10^6 cells

Question: And the “Dose with efficacy against sterile peritonitis in mice” value (mouse, in vivo)?
Answer: 0.00032 µg/kg

Question: And the “Dose giving maximal reduction in zymosan-elicited neutrophil and monocyte recruitment” value (single i.p. dose, 4 h post-zymosan)?
Answer: 8 pg/mouse

Question: For “GLFHDQAGPPAGYEF (Scrambled C15) [C15-S, control peptide, scrambled C15, reference compound]”, which “Protection in vivo as judged by monocyte and neutrophil levels (FIG. 7C-D)” value is on record?
Answer: not be protective
